Source: the supplement of paper PMC11061612

What was measured:
Assay in all cases: Bliss excess, mean over the matrix (fraction); higher = more synergy
[1] = system: MSTO-211H (Mesothelioma)
Summary of the method: (§1)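 Cell lines in DMEM/F12 or RPMI with 10% FBS were plated in 1536-well plates, held 24 hours at 37°C, 5% CO2, then given two-drug dose matrices for 72 hours (DMSO typically 0.2%). Viability was read by CellTiter-Glo 2.0 luminescence and scaled as inhibition from 0 (vehicle wells) to 1 (blank wells). Combination Emax is the second-highest inhibition in the matrix; Bliss excess is observed combination effect minus expected EA + EB − EA·EB, EA and EB being single-agent effects.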

[2] = system: TYK-nu (Ovarian Carcinoma)
Summary of the method: as §1

[3] = system: NOMO-1 (Acute Myeloid Leukemia)
Summary of the method: as §1

[4] = system: SW948 (Colorectal Carcinoma)
Summary of the method: as §1

[5] = system: YT (Other Blood Carcinomas)
Summary of the method: as §1

[6] = system: WSU-DLCL2 (B-Cell Non-Hodgkin's Lymphoma)
Summary of the method: as §1

[7] = system: PA-TU-8902 (Pancreatic Carcinoma)
Summary of the method: as §1

[8] = system: EW-22 (Ewing's Sarcoma)
Summary of the method: as §1

[9] = system: H4 (Low Grade Glioma)
Summary of the method: as §1

[10] = system: D-392MG (Glioblastoma)
Summary of the method: as §1

[11] = system: SW48 (Colorectal Carcinoma)
Summary of the method: as §1

[12] = system: A172 (Glioblastoma)
Summary of the method: as §1

[13] = system: SLVL (B-Cell Non-Hodgkin's Lymphoma)
Summary of the method: as §1

[14] = system: HuO9 (Osteosarcoma)
Summary of the method: as §1

[15] = system: 647-V (Bladder Carcinoma)
Summary of the method: as §1

[16] = system: SKN-3 (Head and Neck Carcinoma)
Summary of the method: as §1

[17] = system: KG-1 (Acute Myeloid Leukemia)
Summary of the method: as §1

[18] = system: U-118-MG (Low Grade Glioma)
Summary of the method: as §1

[19] = system: EFM-192A (Breast Carcinoma)
Summary of the method: as §1

[20] = system: SNU-61 (Colorectal Carcinoma)
Summary of the method: as §1

| SMILES | Bliss excess [1] | Bliss excess [2] | Bliss excess [3] | Bliss excess [4] | Bliss excess [5] | Bliss excess [6] | Bliss excess [7] | Bliss excess [8] | Bliss excess [9] | Bliss excess [10] | Bliss excess [11] | Bliss excess [12] | Bliss excess [13] | Bliss excess [14] | Bliss excess [15] | Bliss excess [16] | Bliss excess [17] | Bliss excess [18] | Bliss excess [19] | Bliss excess [20] |
| --- | --- | --- | --- | --- | --- | --- | --- | --- | --- | --- | --- | --- | --- | --- | --- | --- | --- | --- | --- | --- |
| CCc1c2c(nc3ccc(O)cc13)-c1cc3c(c(=O)n1C2)COC(=O)[C@]3(O)CC [SN-38] + O=C(c1cc(Cc2n[nH]c(=O)c3ccccc23)ccc1F)N1CCN(C(=O)C2CC2)CC1 [Olaparib] (first compound max 0.3 µM, 7x7, partner max 10 µM) | 0.0376 | -0.0067 | 0.0544 | 0.0993 | -0.0409 | 0.0564 | 0.086 | 0.0213 | 0.0958 | 0.0711 | 0.028 | 0.0639 | 0.0327 | 0.0687 | – | – | – | – | – | – |
| CCN(CCO)CCCOc1ccc2c(Nc3cc(CC(=O)Nc4cccc(F)c4)[nH]n3)ncnc2c1 [AZD2811] + C=CCn1c(=O)c2cnc(Nc3ccc(N4CCN(C)CC4)cc3)nc2n1-c1cccc(C(C)(C)O)n1 [AZD1775] (first compound max 1 µM, partner max 1 µM) | 0.0387 | -0.0586 | 0.0412 | – | 0.0367 | 0.013 | -0.006 | 0.0527 | -0.0637 | -0.0945 | -0.013 | -0.0033 | -0.04 | 0.0204 | 0.0491 | -0.0154 | 0.0591 | 0.0469 | -0.0883 | 0.0108 |
| CCN(CCO)CCCOc1ccc2c(Nc3cc(CC(=O)Nc4cccc(F)c4)[nH]n3)ncnc2c1 [AZD2811] + O=C(c1cc(Cc2n[nH]c(=O)c3ccccc23)ccc1F)N1CCN(C(=O)C2CC2)CC1 [Olaparib] (first compound max 1 µM, 7x7, partner max 10 µM) | 0.0178 | -0.0152 | 0.0454 | – | 0.0623 | 0.0463 | 0.0081 | -0.0612 | -0.0046 | -0.0695 | 0.0145 | 0.044 | -0.001 | 0.0215 | 0.0433 | -0.0236 | 0.0382 | 0.0186 | 0.0138 | -0.0184 |
| CS(=O)(=O)CCNCc1ccc(-c2ccc3ncnc(Nc4ccc(OCc5cccc(F)c5)c(Cl)c4)c3c2)o1 [Lapatinib] + Cn1cnc2c(F)c(Nc3ccc(Br)cc3Cl)c(C(=O)NOCCO)cc21 [Selumetinib] (first compound max 10 µM, 7x7, partner max 10 µM) | -0.0401 | – | -0.0346 | -0.0086 | 0.0147 | 0.0044 | – | -0.0366 | -0.0159 | -0.0383 | 0.146 | – | 0.0683 | – | – | – | – | – | – | – |
| C=CCn1c(=O)c2cnc(Nc3ccc(N4CCN(C)CC4)cc3)nc2n1-c1cccc(C(C)(C)O)n1 [AZD1775] + O=C(c1cc(Cc2n[nH]c(=O)c3ccccc23)ccc1F)N1CCN(C(=O)C2CC2)CC1 [Olaparib] (first compound max 1 µM, partner max 10 µM) | -0.0203 | -0.108 | -0.027 | – | -0.008 | -0.0184 | -0.0327 | 0.0148 | -0.12 | -0.0369 | -0.0398 | -0.0226 | -0.0005 | 0.0102 | 0.0046 | -0.0512 | -0.0195 | -0.0766 | -0.0307 | -0.0289 |
| CCN(CCO)CCCOc1ccc2c(Nc3cc(CC(=O)Nc4cccc(F)c4)[nH]n3)ncnc2c1 [AZD2811] + C[C@@H]1COCCN1C2=NC(=NC(=C2)C3(CC3)[S@](=N)(=O)C)C4=C5C=CNC5=NC=C4 [AZD6738] (first compound max 1 µM, 7x7, partner max 10 µM) | -0.0279 | -0.0244 | -0.0118 | – | -0.0204 | -0.0431 | -0.0532 | -0.0503 | -0.0536 | -0.0537 | -0.0228 | -0.0252 | -0.0451 | -0.0491 | 0.0177 | -0.0167 | -0.0332 | -0.0337 | -0.0201 | -0.0434 |
| CN(C)CCCOc1ccc(-c2ccc3ncc4c(c3c2)n(C2CCOCC2)c(=O)n4C)cn1 [AZD0156] + O=C(c1cc(Cc2n[nH]c(=O)c3ccccc23)ccc1F)N1CCN(C(=O)C2CC2)CC1 [Olaparib] (first compound max 3 µM, partner max 3 µM) | -0.0685 | 0.0468 | 0.0887 | -0.0231 | 0.0265 | 0.211 | -0.0456 | 0.217 | 0.179 | -0.0585 | – | 0.0378 | 0.0638 | 0.0888 | 0.0562 | -0.0165 | 0.0474 | 0.0122 | -0.0026 | – |
| C=CCn1c(=O)c2cnc(Nc3ccc(N4CCN(C)CC4)cc3)nc2n1-c1cccc(C(C)(C)O)n1 [AZD1775] + C[C@@H]1COCCN1C2=NC(=NC(=C2)C3(CC3)[S@](=N)(=O)C)C4=C5C=CNC5=NC=C4 [AZD6738] (first compound max 1 µM, partner max 10 µM) | 0.0418 | -0.0711 | 0.0261 | – | 0.0305 | 0.0763 | 0.0315 | -0.0218 | -0.0949 | -0.04 | 0.0642 | 0.0433 | -0.0105 | 0.0672 | 0.0662 | 0.0234 | -0.0218 | -0.0075 | -0.0053 | -0.051 |
| Cc1nc(-c2cn3c(n2)-c2ccc(-c4cnn(C(C)(C)C(N)=O)c4)cc2OCC3)n(C(C)C)n1 [Taselisib] + O=C(Nc1ccc2[nH]nc(-c3ccncc3)c2c1)[C@@H]1CCN(CC(=O)N2CCN(c3ccc(-c4ncccn4)cc3)CC2)C1 [SCH772984] (first compound max 10 µM, 7x7, partner max 5 µM) | 0.131 | – | 0.141 | 0.032 | -0.0084 | 0.0062 | – | 0.0152 | -0.0007 | 0.0272 | 0.203 | – | 0.0524 | – | – | – | – | – | – | – |
| CN(C)CCCOc1ccc(-c2ccc3ncc4c(c3c2)n(C2CCOCC2)c(=O)n4C)cn1 [AZD0156] + C=CCn1c(=O)c2cnc(Nc3ccc(N4CCN(C)CC4)cc3)nc2n1-c1cccc(C(C)(C)O)n1 [AZD1775] (first compound max 1 µM, partner max 1 µM) | 0.0099 | -0.0836 | 0.004 | – | -0.0273 | -0.0119 | -0.0339 | 0.006 | -0.0516 | -0.0461 | -0.0172 | -0.0431 | -0.0203 | -0.0017 | 0.0001 | -0.0276 | -0.0194 | -0.0322 | -0.0567 | -0.0277 |
| CN(CCO)CC[C@H](CSc1ccccc1)Nc1ccc(S(=O)(=O)NC(=O)c2ccc(N3CCC([C@@H](O)c4ccccc4-c4ccc(Cl)cc4)CC3)cc2)cc1S(=O)(=O)C(F)(F)F [AZD4320] + CCN(CCO)CCCOc1ccc2c(Nc3cc(CC(=O)Nc4cccc(F)c4)[nH]n3)ncnc2c1 [AZD2811] (first compound max 1 µM, 7x7, partner max 1 µM) | 0.0471 | -0.0086 | 0.208 | -0.0196 | -0.0344 | 0.201 | -0.0403 | 0.0467 | 0.0036 | 0.114 | -0.0226 | 0.0322 | 0.135 | 0.0376 | 0.114 | -0.0333 | 0.0803 | -0.0148 | – | -0.0262 |
| Cc1c2c(nn1C)CSCc1cc(n(C)n1)CSc1cc(c3ccccc3c1)OCCCc1c(C(=O)O)n(C)c3c-2c(Cl)ccc13 [AZD5991] + Cc1cc2ncnn2cc1Nc1ncc2c(n1)n(C1CCOCC1)c(=O)n2C [AZD7648] (first compound max 1 µM, 7x7, partner max 10 µM) | -0.025 | -0.0539 | 0.0486 | -0.0328 | 0.0305 | -0.0422 | – | -0.041 | 0.0222 | -0.0664 | -0.036 | -0.0426 | 0.0016 | -0.018 | 0.0281 | -0.032 | -0.0136 | -0.0098 | -0.0394 | -0.0446 |
| CN(C)CCCOc1ccc(-c2ccc3ncc4c(c3c2)n(C2CCOCC2)c(=O)n4C)cn1 [AZD0156] + CCN(CCO)CCCOc1ccc2c(Nc3cc(CC(=O)Nc4cccc(F)c4)[nH]n3)ncnc2c1 [AZD2811] (first compound max 1 µM, 7x7, partner max 1 µM) | -0.0098 | -0.0179 | 0.0759 | – | 0.0041 | 0.0362 | -0.0223 | 0.005 | -0.0077 | -0.0556 | -0.0164 | 0.0239 | -0.0768 | -0.009 | 0.0365 | -0.0239 | -0.0001 | 0.0017 | -0.0243 | -0.0339 |
| CN(CCO)CC[C@H](CSc1ccccc1)Nc1ccc(S(=O)(=O)NC(=O)c2ccc(N3CCC([C@@H](O)c4ccccc4-c4ccc(Cl)cc4)CC3)cc2)cc1S(=O)(=O)C(F)(F)F [AZD4320] + Cn1cnc2c(F)c(Nc3ccc(Br)cc3Cl)c(C(=O)NOCCO)cc21 [Selumetinib] (first compound max 1 µM, 7x7, partner max 3 µM) | 0.0146 | -0.0839 | 0.143 | -0.0332 | -0.0834 | 0.0155 | 0.0696 | 0.0011 | -0.0002 | -0.0474 | -0.0159 | -0.0071 | -0.401 | 0.041 | 0.0631 | 0.0268 | 0.0452 | -0.0149 | – | 0.0604 |
| C=CCn1c(=O)c2cnc(Nc3ccc(N4CCN(C)CC4)cc3)nc2n1-c1cccc(C(C)(C)O)n1 [AZD1775] + C1CN(CCC1(C(=O)N[C@@H](CCO)C2=CC=C(C=C2)Cl)N)C3=NC=NC4=C3C=CN4 [Capivasertib] (first compound max 3 µM, partner max 3 µM) | -0.0797 | -0.0475 | 0.0076 | -0.003 | -0.0938 | -0.0709 | -0.0609 | 0.0403 | -0.0472 | 0.0315 | – | -0.0099 | – | -0.0495 | 0.0493 | -0.0344 | 0.0152 | -0.0726 | -0.0004 | – |
| CS(=O)(=O)CCNCc1ccc(-c2ccc3ncnc(Nc4ccc(OCc5cccc(F)c5)c(Cl)c4)c3c2)o1 [Lapatinib] + NC1(c2ccc(-c3nc4ccn5c(=O)[nH]nc5c4cc3-c3ccccc3)cc2)CCC1 [MK-2206] (first compound max 10 µM, 7x7, partner max 10 µM) | -0.0466 | -0.0165 | 0.0427 | 0.049 | -0.0321 | 0.0058 | -0.0237 | 0.0308 | 0.0054 | -0.0411 | 0.0412 | – | 0.0539 | 0.0257 | – | -0.0508 | – | – | – | – |
